The values below are quoted from earlier work in the CATMoS acute toxicity set (Mansouri et al. 2021).

SMILES strings stand for the structures. “And” between values parts separate entries of the source, which are not always exact repeats. Equal entries are not always repeated.

A short description of this data set: rat acute oral toxicity. As to conditions: in vivo.
Regarding `O=[N+]([O-])c1cc2c(ccc3ccccc32)o1`, the LD50 – broadly, the dose at which mortality reaches 50% – is 439 mg/kg.
For the compound `CC(C)(C)N(NC(=O)c1ccc(Cl)cc1)C(=O)c1ccccc1`, the LD50 is 2850 mg/kg.
`CC(=O)OC(C)(C)CCc1ccccc1`: the LD50 is 4850 mg/kg.
Turning to `CC(C)c1ccc2ccccc2c1C(C)C`, the LD50 was 15200 mg/kg.
For the compound `CCCOP(=O)(OCCC)Oc1cnn(C)c(=O)c1OC`, the LD50 was 15 mg/kg.
`Nc1ccc(S(=O)(=O)Nc2ccc(NC(=O)CCC(=O)O)cc2)cc1`: the LD50 is 1500 mg/kg.
With `CCCCCCCCCCCCCCSC#N`, the LD50 was 15000 mg/kg.
For `O=C1CN=C(c2ccccc2F)c2cc(Cl)ccc2N1CC1CC1`, the median lethal dose (LD50) was 10100 mg/kg.
Consider `COP(=S)(OC)SCC(=O)N(c1ccc(Cl)cc1)C(C)C`, for which the LD50 was 472 mg/kg.
`C[N+]1(CCN(C2CCCCC2)C2CCCCC2)CCCCC1`: the LD50 was 650 mg/kg.
With `S=C1NCCS1`, the LD50 was 300 mg/kg.
Consider `FC(F)(F)c1nc2c(Br)c(Cl)c(Br)cc2[nH]1`, for which the LD50 is 8.47 mg/kg.
For `O=C1CNC(=S)N1`, the LD50 is 420 mg/kg.
Consider `CCN(CC)S(=O)(=O)CCNC(=O)N(CCCl)N=O`, for which the LD50 is 60 mg/kg.
For the compound `CC1CN(C2CCCCCCCCCCC2)CC(C)O1` (stereo not drawn), the LD50 was 2640 mg/kg and 2500 mg/kg.
Turning to `OC1CCc2ccccc21` (stereo not drawn), the LD50 was 620 mg/kg.
On to `OC(CCCN1CCCCC1)(c1ccccc1)c1ccccc1`, for which the LD50 was 515 mg/kg.
With `CCCOC(=O)CC`, the LD50 was 10300 mg/kg.
On to `CCOc1ccc([N+](=O)[O-])cc1CNCCBr`, for which the LD50 is 25 mg/kg.
Regarding `O=S1(=O)OCC2C(CO1)C1(Cl)C(Cl)=C(Cl)C2(Cl)C1(Cl)Cl` (stereo not drawn), the LD50 was 18 mg/kg.
Take `N#CCc1ccc(Cl)cc1`: the LD50 was 50 mg/kg.
With `CCN(CC(F)(F)F)N=O`, the LD50 is 960 mg/kg.
In the case of `O=C(O)C(c1ccc(Cl)cc1)c1ccc(Cl)cc1`, the LD50 is 600 mg/kg and 740 mg/kg.
With `CC(C)N(CCC(C#N)(c1ccccc1)c1ccccn1)C(C)C` (stereo not drawn), the LD50 was 596 mg/kg.
Regarding `O=c1[nH]c2ccc(Br)cc2o1`, the LD50 is 1000 mg/kg.
Consider `C=CCN(CC=C)C(=O)CCl`, for which the LD50 is 700 mg/kg.
Consider `CCC1NC(=O)c2ccccc2O1` (stereo not drawn), for which the LD50 was 1310 mg/kg.
With `COc1ccc(S(=O)(=O)Nc2nnc(C(C)(C)C)s2)cc1`, the LD50 was 1150 mg/kg.
`O=C1NC(=O)C2C3C(C(O)(c4ccccc4)c4ccccn4)=CC(C3=C(c3ccccc3)c3ccccn3)C12` (stereo not drawn): the LD50 is 6 mg/kg.
On to `CCOP(=O)(OCC)Oc1cc(C)n(CC)c(=O)c1`, for which the LD50 was 1.62 mg/kg.
Consider `CC[N+]1(CCOC(=O)C(O)(c2ccccc2)c2ccccc2)CCCCC1`, for which the LD50 is 4600 mg/kg.
For the compound `CCC(CC(C)CC)=NO` (stereo not drawn), the LD50 was 3800 mg/kg.
As to `O=c1[nH]c(=O)c2ccccc2o1`, the median lethal dose (LD50) was 750 mg/kg.
Regarding `Cc1cc(Br)ccc1-n1c(C)nc2ccccc2c1=O`, the 50% lethal dose (LD50) was 240 mg/kg.
With `CN(C)c1ccc(N)c2ccccc12`, the LD50 is 400 mg/kg.
On to `CC(C)C(=O)OC1CCC(N2CCCCC2)CC1` (stereo not drawn), for which the LD50 was 3150 mg/kg.
Consider `CCC(CC)C(=O)OCCOCCOCCOC(=O)C(CC)CC`, for which the LD50 is 6000 mg/kg.
Take `Cc1cc(C)c(C)cc1C`: the LD50 was 6990 mg/kg.
As for `O=C(O)c1cccc(Cl)c1Cl`, the LD50 was 300 mg/kg.
For `Nc1ccccc1C(=O)O`, the LD50 was 5410 mg/kg.
Turning to `CCCN(COC(C)=O)N=O`, the LD50 is 1000 mg/kg.
Take `O=C(O)C=Cc1ccc([N+](=O)[O-])o1`: the LD50 was 1220 mg/kg.
As to `O=[PH](O)c1ccccc1`, the LD50 is 1340 mg/kg.
Regarding `C=CC(O)CC#N` (stereo not drawn), the LD50 was 200 mg/kg.
In the case of `COC(OC)c1ccccc1`, the 50% lethal dose (LD50) was 1220 mg/kg.
As for `CCN(CC)CCNC(=O)c1ccc(N)cc1`, the LD50 was 1950 mg/kg.
`CCCCc1c(OC(=O)c2ccc3c(c2)OCO3)n(-c2ccccc2)n(-c2ccccc2)c1=O`: the LD50 was 1370 mg/kg.
As for `CCc1cc2c(s1)N(C)C(=O)CN=C2c1ccccc1Cl`, the LD50 was 1460 mg/kg.
With `N#CCC(=O)c1ccc(N)cc1`, the LD50 was 2260 mg/kg.
For the compound `CC(C)(OOC(C)(C)c1ccccc1)c1ccccc1`, the LD50 was 4100 mg/kg.
Take `CCCCCCCCOC(C[n+]1ccccc1)c1ccc(C2CCCCC2)cc1` (stereo not drawn): the LD50 is 250 mg/kg.
On to `CNC(=O)Oc1ccccc1C1OCCO1`, for which the LD50 is 25 mg/kg.
For `CC(C)c1ccc(C=O)cc1`, the LD50 was 1390 mg/kg.
With `BrC=Cc1ccccc1`, the LD50 was 1250 mg/kg.
With `CN1CCN(C2=Nc3ccccc3Cc3ccccc32)CC1`, the median lethal dose (LD50) is 660 mg/kg.
On to `CC(C(=O)O)c1ccc2c(c1)CC(=O)c1ccccc1S2` (stereo not drawn), for which the LD50 is 425 mg/kg.
On to `CCOc1ccc(NCCC#N)cc1`, for which the LD50 is 4600 mg/kg.
On to `Fc1ccc(-c2cccs2)cc1`, for which the LD50 was 500 mg/kg.
Take `OC(CCN1CCCCC1)(c1ccccc1)C1CCCC1` (stereo not drawn): the LD50 is 628 mg/kg.
Take `Cc1ccc(S(=O)(=O)/C=C/C#N)cc1`: the median lethal dose (LD50) is 1440 mg/kg.
`C1=CC2C3CCC(C3)C2C1` (stereo not drawn): the LD50 was 670 mg/kg.
For `CC(CCl)[N+](=O)[O-]` (stereo not drawn), the LD50 was 197 mg/kg.
With `CCc1c(C)nc2cc(C)cc(C)n2c1=O`, the LD50 was 1500 mg/kg.
